Results as given in US9364564B2, “Pre-mixed, ready-to-use pharmaceutical compositions” (EKR Therapeutics, Inc., priority 2006, dated 2016).
Structures can show the parent of a compound that is named as a salt.

Tests used:
[1] = Effect of plastic film composition (IV bag type) on stability at 40° C.; type: physicochemical; details: bags containing PVC (VIAFLEX, INTRAVIA), 0.2 mg/mL non-sorbitol dextrose formulation
Protocol: The effect of plastic film composition on the stability of ready to use premixed compositions comprising 0.2 mg/mL nicardipine HCl, 0.2 mM citrate, 5% dextrose, pH 4.0-4.2 for “incompatible” bags and “compatible” bags is shown in FIGS. 5A and 5B respectively. “Incompatible” bags contain polar polymers, such as polyvinyl chloride (PVC) and ethylene vinyl acetate (EVA). […] Stability evaluations were done for the 0.2 mg/mL non-sorbitol dextrose formulation in various commercially available IV infusion bag systems. […]®, and VISIV® bags were rinsed in water and covered with aluminum foil over pouches. The bags were filled with the above formulation and autoclaved at 105° C. for 21 minutes. […]®71 and GALAXY® bags were aseptically filled with the above formulation. Stability assessments were done by measuring the % drug remaining and total impurity formation (data not shown) as a function of time using RP-HPLC for samples incubated for up to 24 weeks at 40° C. The % drug remaining was calculated relative to the concentration measured post-mixing in tank.

[2] = weak base; cited from earlier work
[3] = Stability of concentrated ampul product after dilution with intravenous infusion fluids; type: physicochemical; details: diluted to 0.1 mg/ml in IV bag, 24 hours, final pH above 4.5
Protocol: Stability results for the concentrated ampul product diluted to 0.1 mg/ml with various commonly used intravenous infusion fluids in an IV bag are shown in FIG. 1. pH after mixing was measured and is reported on the X-axis. Product stability was measured by monitoring the % drug remaining after duration of 24 hours by RP-HPLC and is shown on the Y-axis.

[4] = cited from earlier work

SMILES | loss in product potency upon storage [1] | pKa [2] | drug loss post dilution [3] | solubility in water [4]
COC(=O)C1=C(C)NC(C)=C(C(=O)OCCN(C)Cc2ccccc2)C1c1cccc([N+](=O)[O-])c1 (racemic) [nicardipine HCl, (±)-2-(benzyl-methylamino) ethyl methyl 1,4-dihydro-2,6-dimethyl-4-(m-nitrophenyl)-3,5-pyridinedicarboxylate monohydrochloride] | Significant loss in product potency | ~7.2 | very pronounced drug loss | –
COC(=O)C1=C(C)NC(C)=C(C(=O)OCCN(C)Cc2ccccc2)C1c1cccc([N+](=O)[O-])c1 (stereo not shown) [Nicardipine, nicardipine] | – | – | – | only slightly soluble
